According to article PMC7125190, “Native/citrullinated LL37-specific T-cells help autoantibody production in Systemic Lupus Erythematosus” (Scientific Reports, 2020):

Tests used:
Format in all cases: cell-based, human
[1] = tested on: PBMCs; experiment: LL37-specific T-cell help: autoantibodies in PBMC culture supernatants by ELISA; details: for anti-LL37/anti-cit-LL37 antibodies in culture supernatants: SLE PBMCs, 7 days
Method: Anti-native/cit-LL37, other antigen antibodies (anti-DNA and anti-RNA), and total anti-human IgG were measured by ELISA as described. Briefly, 96-well flat-bottom plates (Non-Binding surface polystyrene, Corning, USA) are coated with 2 μg/mL of native LL37/cit-LL37 or control proteins or human DNA or human RNA[9] or anti-human IgG antibody (Sigma) in carbonate buffer (0.1 M NaHCHO3, pH 9) for 2 hours (or over night) and washed four times with PBS 0.1% Tween-20. This washing buffer was used for washing at all steps. The blocking buffer containing 2% bovine serum albumin (BSA, Sigma) in PBS was used for at least 1 hour (or over night) to saturate unspecific binding sites. After washing, sera were diluted at various concentrations (usually 1:100 or 1:200) in PBS 2% BSA (cell culture supernatants were diluted 1:2, 1:4 or 1:10) followed by 1 hour incubation with a horseradish peroxidase–conjugated (HRP) goat anti-human IgG (Sigma-Aldrich), diluted 1:10,000 in PBS. The color was developed for 5 minutes with 3,3’,5,5’-tetramethylbenzidine (TMB) substrate (Sigma-Aldrich). The reaction was stopped by adding 50 μl of 2 N H2SO4, and absorbance determined at 450 nm with a reference wavelength of 540 nm. Anti-dsDNA in sera of lupus patients were detected by the standard clinical test Kallestad Crithidia luciliae Complete Kits for detection and semi-quantitation of autoantibodies to native DNA (nDNA) antigens by indirect fluorescence antibody (IFA) procedure. ELISA for detection of anti-tetanus antibodies (anti-TT) was from Abnova (Taiwan).
(§1) Peptide-MHC-tetramer staining of T-cell lines/clones and blood T-cells
Peptide-MHC-tetramers (Table S4) were from ProImmune, (UK), TC Metrix, (CH), Benaroya, (USA) and ImmunAware (Denmark). Staining was performed for 40 minutes at 37°C, followed by staining for CD4 (4°C, 20 minutes). Before flow cytometry-acquisition, cells were labelled with PercP-conjugated 7-AAD to exclude dead cells.
LL37 specific T-cell help for production of autoantibodies
We cultured patient PBMCs with LL37 or control antigens and low doses of hrIL-2 (added at day 6, 10U/mL), and we detected appearance of autoantibodies in the culture supernatants by ELISA at various time points (from 7-to 10 days and, when needed, after a second stimulation with autologous PBMCs and antigen). In parallel, we monitored appearance of markers typical of B-cells/plasma cells (CD20, CD27, CD38, CD138) in the CD3neg cells by flow cytometry.
Immunohistochemistry and laser scanner confocal microscopy (LSM)
We performed staining on […] paraffin or frozen sections of human lupus erythematosus skin specimens obtained from CHUV, Dept. of Dermatology. Staining with anti-cit-LL37 Mabs was performed using the antibodies Mab142 and Mab137 at 1:40 dilution, followed by incubation with a […] (Abcam). HRP and DAB (DAKO) were used to develop the color. Nuclear staining was performed with Mayer’s haematoxylin.
To visualize NETs, we seeded neutrophils on coverslips pre-treated with polylysine and stimulated them with various stimuli to induce release of the NETs. After 3 hours, cells were gently washed and stained with anti-CD15-PE or biotinylated polyclonal rabbit anti-LL37 antibodies (Innovagen), followed by addition of AlexaFluor 488-streptavidin. Frozen or paraffin-included SLE renal biopsies, obtained from Policlinico Umberto I, Rome, IT or CHUV Lausanne, CH, were stained, after saturation with blocking buffer (PBS, 0.05% tween 20, 4% BSA) for 1 hour at room temperature. Bopsies in paraffin were stained after de-paraffination in xilene (5 minutes, two times), followed by passages in: absolute ethanol (3 minutes), 95% ethanol in water (3 minutes), 80% ethanol in water (3 minutes), 70% ethanol in water (3 minutes), and antigen retrieval (5 minutes at […]

[2] = tested on: PBMCs; experiment: IL-21 production in PBMC cultures (ELISA); details: SLE (but not in psoriasis)
Description: analyzed by flow-cytometry (after staining by BrdU-detection kit, BD Pharmingen). Before cloning, bulk-cultures were stimulated with autologous-irradiated PBMCs and peptide over night, and stained for CD3 and CD4 and with the “Cytokine secretion assays kits” (MACS, Miltenyi Biotec) to detect IL-2-, IFN-ɣ- and/or IL-17-secretion and CD38 as an activation marker, and sorted by a cell-sorter (MoFlo Astrios, Beckman Coulter). Dead cells were excluded by DAPI staining. Sorted activated CD4+CD3+ cells, secreting cytokines were cloned by limiting dilution in Terasaki plates (Nunc Microwell, Sigma-Aldrich) in the presence of allogeneic-irradiated (104) PBMCs activated by phytohaemagglutinin (1 µg/mL, PHA, Murex, 0.5 cells/well) and 100 U/mL of hrIL-2. Clones reactivity and HLA-restriction were analyzed using HLA-matched-homozigous B-LCLs, pulsed with […]
Measurement of cytokine production in primary T-cells and T-cell lines/clones Cytokines secretion was detected by ELISA (Quantikine; R&D Systems, Minneapolis, MN) for IL-4, IL-10, IL-17, IFN-ɣ, IL-22, IL-21, or by Th1/Th2 10-Plex and IL-17-Tissue Culture Kits (read by MSD Sector Imager 2400, Meso Scale Discovery, Gaithersburg, MD). Supernatants were harvested from primary cultures at day 3 (day 2 for T-cell lines/clones). Production of cytokines was also analyzed by flow cytometry after culture of PBMCs with LL37/LL37-peptides for 6-7 days. […]

[3] = tested on: CD4 T-cells; experiment: Peptide-MHC-tetramer staining of PBMC after seven-day culture; details: for peptide-MHC-tetramer staining in HLA-matched HD: HLA-matched HD PBMCs; for peptide-MHC-tetramer staining at remission: SLE2, SLE22 and CLE6 PBMCs at remission
Method: as §1
Peptide-MHC-tetramers (Table S4) were from ProImmune, (UK), TC Metrix, (CH), Benaroya,
(USA) and ImmunAware (Denmark). Staining was performed for 40 minutes at 37°C, followed by
staining for CD4 (4°C, 20 minutes). Before flow cytometry-acquisition, cells were labelled with
PercP-conjugated 7-AAD to exclude dead cells. […]

Row | Substance | anti-LL37/anti-cit-LL37 antibodies in culture supernatants [1] | anti-HNPs and anti-TT antibodies ([1]; SLE cultures) | IL-21 production [2] | peptide-MHC-tetramer staining in HLA-matched HD ([3]; seven-day culture) | peptide-MHC-tetramer staining at remission [3] | frequency of peptide-MHC-tetramer positive T-cells, cit-LL37 versus native-LL37 ([3]; three patients (SLE2, SLE22, CLE6), seven-day culture) | anti-LL37/cit-LL37 antibody production ([1]; PBMCs of psoriasis patients whose T-cells proliferate to LL37, and HD PBMCs) | anti-DNA- and RNA-antibody reactivity ([1]; SLE cultures, sequential stimulation with autologous PBMCs and native LL37)
1 | LLGDFFR(cit)KSKEKIGKEFKR(cit)IVQR(cit)IKDFLR(cit)NLVPR(cit)TES [cit-LL37, citrullinated LL37 (citrullinated at all five arginin positions)] | became apparent in culture supernatants | did not increase | significant up-regulation | did not stain significantly | still observed some staining upon stimulation with cit-LL37 | higher upon culture of PBMCs with cit-LL37 compared to native-LL37 | – | –
2 | LLGDFFRKSKEKIGKEFKRIVQRIKDFLRNLVPRTES [LL37, native LL37, antimicrobial peptide, 37 aa] | became apparent in culture supernatants | did not increase | significant up-regulation | did not stain significantly | not staining for native-LL37 | – | did not lead to significant anti-LL37/cit-LL37 antibody production | became also detectable
